Experimental data: patent publication US8680120B2, “Indole derivative or pharmaceutically acceptable salt thereof” (Kissei Pharmaceutical Co., Ltd., priority 2009, dated 2014)

These compounds were tested against rat EP1 receptor (Rattus norvegicus (Rat), UniProt P70597) (assay: Test for confirmation of EP1 receptor antagonism: inhibition of the prostaglandin E2-induced increase in intracellular calcium concentration in rat EP1 receptor-expressing COS-1 cells). Conditions: Method A: Fluo-4 NW Calcium Assay Kit, FlexStation; prostaglandin E2 10 nM; rat EP1 receptor-expressing COS-1 cells.
Type: cell-based
Description: (1) Preparation of Rat EP1 Expression Vector
Using Rat Kidney BD Marathon-Ready cDNA (Nippon Becton Dickinson Company, Ltd.) as a template, a forward primer shown in SEQ ID NO. 1, and a reverse primer shown in SEQ ID NO. 2, a first run of PCR was carried out using KOD-Plus-Ver 2.0 (Toyobo Co., Ltd.). Further, using this amplification product as a template, a forward primer shown in SEQ ID NO. 3, and a reverse primer shown in SEQ ID NO. 4, a second run of PCR was carried out in the same manner. The amplification product obtained by the second run of PCR was incorporated into a vector (pcDNA3.1 D/V5-His-TOPO (registered trademark), Invitrogen Japan K. K.). By a conventional method, the vector containing this amplification product was introduced to E. coli (One Shot TOP10 Competent Cells, Invitrogen Corporation) to transform. This transformed E. coli was cultured in an LB agar medium for one day. After the culture, colonies were selected and cultured in an LB liquid medium containing 50 μg/mL of ampicillin. After the culture, the vector was purified using a QIAprep Spin Miniprep Kit (Qiagen K. K.). The base sequence of the insertion site of this vector (SEQ ID NO. 5) was compared with the rat EP1 base sequence (Ptger1) registered as an accession number NM_013100 in well-known database (NCBI), and as a result, they all matched except for a single base. Further, the amino acid sequence translated by the base sequence completely matched the amino acid sequence of the rat EP1 receptor registered as an NCBI accession number NP_037232. Therefore, it was confirmed that the cloned gene sequence was a base sequence of the rat EP1 receptor and the obtained amino acid sequence was that of the rat EP1 receptor. The pcDNA3.1 D/V5-His-TOPO (registered trademark) to which the nucleic acid shown in SEQ ID NO. 5 had been inserted was taken as a rat EP1-expressing vector.
(2) Preparation of Rat EP1 Receptor-Expressing Cells
COS-1 cells (Dainippon Sumitomo Pharma Co., Ltd.) were cultured until it reached confluence in an incubator at 37° C. under a 5% CO2 gas condition, using a D-MEM liquid medium (high glucose and L-glutamine contained, Invitrogen Corporation) to which a penicillin-streptomycin solution (Invitrogen Corporation, final concentration: 100 U/mL as benzylpenicillin; 100 μg/mL as streptomycin) as an antibiotic, MEM nonessential amino acids (Invitrogen Corporation, final Concentration: 0.1 mM), and fetal calf serum (Sanko Junyaku Co., Ltd., final concentration: 10%) were added.
The cells that had reached confluence were stripped with 0.05% trypsin/0.53 mM EDTA 4Na (Invitrogen Japan K. K.) and resuspended in the liquid medium. The resuspended cells were diluted and cultured in the liquid medium at a spread ratio from 1:4 to 1:8.
The cells that had reached confluence were stripped with 0.05% trypsin/0.53 mM EDTA.4Na, and resuspended in a D-MEM liquid medium (high glucose and L-glutamine contained, Invitrogen Corporation) to which an MEM nonessential amino acid (final concentration: 0.1 mM) and fetal calf serum (final concentration: 10%) were added. In each well of a Poly D-lysine-coated 96-well microplate (BD BioCoat (registered trademark), Nippon Becton Dickinson Company, Ltd.), this resuspended cell suspension culture was prepared to be 5×10^4 cells/well in 100 μL of the liquid medium, and seeded thereon. After seeding, the cells were cultured in an incubator at 37° C. under a 5% CO2 gas condition. At a point when the cells for introduction of a rat EP1-expressing vector were adhered (about 2 hours after seeding), introduction of the rat EP1-expressing vector was carried out in the following order.
For introduction of the rat EP1-expressing vector, Lipofectamine 2000 (Invitrogen Japan K. K.) was used. […]

Sequence of rat EP1 receptor (P70597 whole entry): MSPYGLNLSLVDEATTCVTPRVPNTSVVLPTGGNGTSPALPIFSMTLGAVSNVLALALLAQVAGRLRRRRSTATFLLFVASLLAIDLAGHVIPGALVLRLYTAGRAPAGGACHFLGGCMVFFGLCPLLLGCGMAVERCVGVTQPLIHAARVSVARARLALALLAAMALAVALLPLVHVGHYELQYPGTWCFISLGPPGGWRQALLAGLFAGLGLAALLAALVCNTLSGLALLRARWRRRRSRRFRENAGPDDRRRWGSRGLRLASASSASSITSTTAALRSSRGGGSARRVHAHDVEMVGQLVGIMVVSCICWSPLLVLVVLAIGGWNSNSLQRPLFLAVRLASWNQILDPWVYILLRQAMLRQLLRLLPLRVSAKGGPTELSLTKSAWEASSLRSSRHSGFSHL

Row | Compound | IC50 [nM]
1 | 3-(5-methyl-2-phenylindol-1-yl)carboxylic acid [Comparative Example 1, reference compound] | > 10000
2 | COc1ccc2c(c1)cc(-c1ccccc1)n2Cc1cccc(C(=O)O)c1 [Example 9-1, 3-(5-methoxy-2-phenylindol-1-ylmethyl)benzoic acid] | 21
3 | Cc1ccc2c(c1)cc(-c1ccccc1)n2Cc1cccc(C(=O)O)c1 [Example 9-13, 3-(5-methyl-2-phenylindol-1-ylmethyl)benzoic acid] | 89
4 | COc1ccc2c(c1)cc(C(C)C)n2Cc1cccc(C(=O)O)c1 [Example 9-15, 3-(2-isopropyl-5-methoxyindol-1-ylmethyl)benzoic acid] | 22
5 | COc1ccc2c(c1)cc(-c1ccsc1)n2Cc1cccc(C(=O)O)c1 [Example 9-25, 3-(5-methoxy-2-thiophen-3-ylindol-1-ylmethyl)benzoic acid] | 35
6 | COc1ccc2c(c1)cc(-c1ccoc1)n2Cc1cccc(C(=O)O)c1 [Example 9-32, 3-(2-furan-3-yl-5-methoxyindol-1-ylmethyl)benzoic acid] | 11
7 | COc1ccc2c(c1)cc(-c1ccsc1)n2Cc1cccc(C(=O)O)n1 [Example 9-35, 6-(5-methoxy-2-thiophen-3-ylindol-1-ylmethyl)pyridine-2-carboxylic acid] | 23
8 | COc1cc2cc(-c3ccccc3)n(Cc3cccc(C(=O)O)c3)c2cc1F [Example 9-43, 3-(6-fluoro-5-methoxy-2-phenylindol-1-ylmethyl)benzoic acid] | 13
9 | COc1ccc2c(c1)cc(-c1ccccc1)n2Cc1cccc(C(=O)O)c1F [Example 9-44, 2-fluoro-3-(5-methoxy-2-phenylindol-1-ylmethyl)benzoic acid] | 19

Same assay, conditions: Method B: Calcium kit II Fluo 4, FDSS 7000; prostaglandin E2 10 nM; rat EP1 receptor-expressing COS-1 cells

Row | Compound | IC50 [nM]
10 | COc1cc2cc(-c3ccccc3)n(Cc3cccc(C(=O)O)n3)c2cc1Cl [Example 25-9, 6-(6-chloro-5-methoxy-2-phenylindol-1-ylmethyl)pyridine-2-carboxylic acid] | 67
11 | COc1ccc2c(c1)cc(-c1cccc(F)c1)n2Cc1ccc(C(=O)O)o1 [Example 25-11, 5-[2-(3-fluorophenyl)-5-methoxyindol-1-ylmethyl]furan-2-carboxylic acid] | 34
12 | COc1ccc2c(c1)cc(-c1ccccc1)n2Cc1csc(C(=O)O)n1 [Example 25-12] | 55
13 | COc1ccc2c(c1)cc(-c1cccnc1)n2Cc1cccc(C(=O)O)c1 [Example 25-13, 3-(5-methoxy-2-pyridin-3-ylindol-1-ylmethyl)benzoic acid] | 38
14 | COc1cc2cc(-c3ccccc3)n(Cc3cccc(C(=O)O)n3)c2cc1C [Example 25-16, 6-(5-methoxy-6-methyl-2-phenylindol-1-ylmethyl)pyridine-2-carboxylic acid] | 39
15 | COc1ccc2c(c1)cc(-c1ccccc1F)n2Cc1cccc(C(=O)O)c1 [Example 25-17, 3-[2-(2-fluorophenyl)-5-methoxyindol-1-ylmethyl]benzoic acid] | 32
16 | COc1ccc2c(c1)cc(-c1cccc(F)c1)n2Cc1cccc(C(=O)O)c1 [Example 25-18, 3-[2-(3-fluorophenyl)-5-methoxyindol-1-ylmethyl]benzoic acid] | 17
17 | COc1ccc2c(c1)cc(-c1ccc(F)cc1)n2Cc1cccc(C(=O)O)c1 [Example 25-19, 3-[2-(4-fluorophenyl)-5-methoxyindol-1-ylmethyl]benzoic acid] | 36
18 | COc1cc2cc(-c3cccc(F)c3)n(Cc3cccc(C(=O)O)n3)c2cc1Cl [Example 25-23, 6-[6-chloro-2-(3-fluorophenyl)-5-methoxyindol-1-ylmethyl]pyridine-2-carboxylic acid] | 32
19 | COc1cc2cc(-c3ccccc3)n(Cc3ccc(C(=O)O)o3)c2cc1Cl [Example 25-26, 5-[6 chloro-5-methoxy-2-phenylindol-1-ylmethyl]furan-2-carboxylic acid] | 17
20 | COc1cc2cc(-c3ccccc3F)n(Cc3cccc(C(=O)O)n3)c2cc1F [Example 25-28, 6-[6-fluoro-2-(2-fluorophenyl)-5-methoxyindol-1-ylmethyl]pyridine-2-carboxylic acid] | 28
21 | COc1cc2cc(-c3cccc(F)c3)n(Cc3cccc(C(=O)O)n3)c2cc1F [Example 25-29, 6-[6-fluoro-2-(3-fluorophenyl)-5-methoxyindol-1-ylmethyl]pyridine-2-carboxylic acid] | 26
22 | COc1cc2cc(-c3ccc(F)cc3)n(Cc3cccc(C(=O)O)n3)c2cc1F [Example 25-31, 6-[6-fluoro-2-(4-fluorophenyl)-5-methoxyindol-1-ylmethyl]pyridine-2-carboxylic acid] | 33
23 | COc1cc2cc(-c3cccnc3)n(Cc3cccc(C(=O)O)n3)c2cc1F [Example 25-33, 6-(6-fluoro-5-methoxy-2-pyridin-3-ylindol-1-ylmethyl)pyridine-2-carboxylic acid] | 58
24 | COc1cc2cc(-c3ccsc3)n(Cc3cccc(C(=O)O)n3)c2cc1Cl [Example 25-34, 6-(6-chloro-5-methoxy-2-thiophen-3-ylindol-1-ylmethyl)pyridine-2-carboxylic acid] | 54
25 | COc1cc2cc(-c3ccccc3)n(Cc3ccc(C(=O)O)o3)c2cc1C [Example 25-36, 5-[5-methoxy-6-methyl-2-phenylindol-1-ylmethyl]furan-2-carboxylic acid] | 35
26 | COc1cc2cc(-c3ccoc3)n(Cc3cccc(C(=O)O)n3)c2cc1Cl [Example 25-37, 6-(6-chloro-2-furan-3-yl-5-methoxyindol-1-ylmethyl)pyridine-2-carboxylic acid] | 27
27 | COc1cc2cc(-c3ccoc3)n(Cc3ccc(C(=O)O)o3)c2cc1Cl [Example 25-38, 5-(6-chloro-2-furan-3-yl-5-methoxyindol-1-ylmethyl)furan-2-carboxylic acid] | 22
28 | COc1cc2cc(-c3ccsc3)n(Cc3cccc(C(=O)O)n3)c2cc1C [Example 25-39, 6-(5-methoxy-6-methyl-2-thiophen-3-ylindol-1-ylmethyl)pyridine-2-carboxylic acid] | 37
29 | COc1ccc2c(c1)cc(-c1cc(F)ccc1F)n2Cc1cccc(C(=O)O)n1 [Example 25-41, 6-[2-(2,5-difluorophenyl)-5-methoxyindol-1-ylmethyl)pyridine-2-carboxylic acid] | 25
30 | COc1cc2cc(-c3cccnc3)n(Cc3cccc(C(=O)O)n3)c2cc1Cl [Example 25-42, 6-(6-chloro-5-methoxy-2-pyridin-3-ylindol-1-ylmethyl)pyridine-2-carboxylic acid] | 28
31 | CCC(C)c1cc2cc(OC)c(Cl)cc2n1Cc1cccc(C(=O)O)n1 (centres unmarked) [Example 25-44, 6-[6-chloro-5-methoxy-2-(1-methylpropyl)indol-1-ylmethyl]pyridine-2-carboxylic acid] | 51

Same assay, conditions: as shown in Table 49

Row | Compound | EP1 receptor antagonism (in words)
32 | 3-(5-methyl-2-phenylindol-1-yl)carboxylic acid [Comparative Example 1, reference compound] | do not exhibit EP1 receptor antagonism
